Experimental data as given in the SangsterLogP compilation.

Test: method code SF-AS, from DOI: 10.1002/chin.197535153

logP | SMILES
3.15 | Nc1ccc(C(=O)Oc2ccccc2)c(O)c1
3.38 | Cc1ccc(OC(=O)c2ccc(N)cc2O)cc1
3.42 | Nc1ccc(C(=O)Oc2cccc(F)c2)c(O)c1
4.21 | CC(C)(C)c1ccccc1OC(=O)c1ccc(N)cc1O
3.72 | Nc1ccc(C(=O)Oc2ccccc2Cl)c(O)c1
3.14 | Cc1ccccc1OC(=O)c1ccc(N)cc1O
4.12 | CC(C)c1ccc(OC(=O)c2ccc(N)cc2O)cc1
3.84 | Nc1ccc(C(=O)Oc2cccc(Br)c2)c(O)c1
3.46 | Nc1ccc(C(=O)Oc2ccc(Br)cc2)c(O)c1
3.27 | Nc1ccc(C(=O)Oc2ccc(F)cc2)c(O)c1
3.88 | Cc1cccc(C)c1OC(=O)c1ccc(N)cc1O
3.6 | Nc1ccc(C(=O)Oc2ccc(Cl)cc2)c(O)c1
3.64 | Cc1cccc(OC(=O)c2ccc(N)cc2O)c1
2.88 | COc1ccccc1OC(=O)c1ccc(N)cc1O
3.25 | COc1cccc(OC(=O)c2ccc(N)cc2O)c1
3.74 | Nc1ccc(C(=O)Oc2ccccc2Br)c(O)c1
3.29 | Nc1ccc(C(=O)Oc2ccccc2F)c(O)c1
4.28 | CC(C)c1ccccc1OC(=O)c1ccc(N)cc1O
4.27 | Nc1ccc(C(=O)Oc2ccc(Cl)cc2Cl)c(O)c1
3.9 | Nc1ccc(C(=O)Oc2cccc(Cl)c2)c(O)c1
3.07 | COc1ccc(OC(=O)c2ccc(N)cc2O)cc1
2.08 | Nc1cccc(OC(=O)c2ccc(N)cc2O)c1
2.04 | Nc1ccc(OC(=O)c2ccc(N)cc2O)cc1
3.61 | Nc1ccc(C(=O)Oc2cccc(C(F)(F)F)c2)c(O)c1
0.87 | Nc1ccc(C(=O)O)c(O)c1
